Molecules are shown by their SMILES. pIC50: −log10 of the molar value. Activity calls are given as the source filed them. The calls are words filed in the database; no cut-off is given here.

The target of data set [1] is T1, Protein mono-ADP-ribosyltransferase PARP10 (Homo sapiens, UniProt Q53GL7).
T1 sequence (Q53GL7 whole entry): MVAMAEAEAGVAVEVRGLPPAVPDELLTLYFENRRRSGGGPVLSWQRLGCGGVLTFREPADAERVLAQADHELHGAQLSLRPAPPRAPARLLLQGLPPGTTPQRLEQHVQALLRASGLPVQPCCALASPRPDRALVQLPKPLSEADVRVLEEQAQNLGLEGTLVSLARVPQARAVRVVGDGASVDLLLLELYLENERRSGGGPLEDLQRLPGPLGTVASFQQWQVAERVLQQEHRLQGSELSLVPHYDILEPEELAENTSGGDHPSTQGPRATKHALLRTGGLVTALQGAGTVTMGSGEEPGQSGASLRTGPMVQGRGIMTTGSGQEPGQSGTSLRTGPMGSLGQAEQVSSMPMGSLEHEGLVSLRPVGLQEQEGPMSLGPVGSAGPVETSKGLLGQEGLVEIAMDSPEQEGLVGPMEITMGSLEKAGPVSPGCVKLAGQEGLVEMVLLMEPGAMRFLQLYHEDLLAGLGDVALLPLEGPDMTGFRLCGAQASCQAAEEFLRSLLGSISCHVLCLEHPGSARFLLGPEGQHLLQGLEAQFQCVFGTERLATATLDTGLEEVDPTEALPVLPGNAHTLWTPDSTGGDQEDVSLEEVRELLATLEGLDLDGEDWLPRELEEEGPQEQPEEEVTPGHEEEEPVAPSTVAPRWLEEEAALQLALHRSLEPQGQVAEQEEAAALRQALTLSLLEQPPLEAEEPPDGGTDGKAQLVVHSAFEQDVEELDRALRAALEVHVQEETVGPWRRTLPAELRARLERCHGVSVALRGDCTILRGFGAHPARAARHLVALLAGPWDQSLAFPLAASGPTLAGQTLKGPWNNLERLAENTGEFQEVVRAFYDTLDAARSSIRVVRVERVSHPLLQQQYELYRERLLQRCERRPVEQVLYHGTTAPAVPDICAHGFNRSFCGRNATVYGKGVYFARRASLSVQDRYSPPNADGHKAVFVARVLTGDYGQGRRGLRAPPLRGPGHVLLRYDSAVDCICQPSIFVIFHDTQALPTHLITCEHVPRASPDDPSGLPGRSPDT
As to the kind of experiment: Inhibition of human recombinant N-terminal TEV-cleavgae site-fused-FLAG/Polyhis-tagged PARP10 […] expressed in Escherichia coli assessed as reduction in auto-PARylation using histone as substrate measured after 45 mins in presence of biotinylated-NAD+ by ELISA. Background: An ELISA detects its analyte on a solid surface through an enzyme-linked reagent.

Data set [2] deals with RKO. As to the kind of experiment: Antiproliferative activity against human RKO cells assessed inhibition of cell growth measured after 5 days by MTT assay. It is filed as functional. The settings on record: 120 h. For orientation: Tetrazolium dyes change colour on reduction, which living cells bring about.
Data set [3] can be described thus: Dose normalized initial plasma concentration in Sprague-Dawley rat at 1 mg/kg, iv. It is filed as ADME, organism-based. The conditions noted are these: in vivo.
Data set [4] can be described thus: Oral bioavailability in Sprague-Dawley rat at 3 mg/kg. The conditions noted are these: in vivo. Format: ADME, organism-based.
Data set [5] has as its target T2, Cytochrome P450 1A2 (Homo sapiens, UniProt P05177).
T2 sequence (P05177 whole entry): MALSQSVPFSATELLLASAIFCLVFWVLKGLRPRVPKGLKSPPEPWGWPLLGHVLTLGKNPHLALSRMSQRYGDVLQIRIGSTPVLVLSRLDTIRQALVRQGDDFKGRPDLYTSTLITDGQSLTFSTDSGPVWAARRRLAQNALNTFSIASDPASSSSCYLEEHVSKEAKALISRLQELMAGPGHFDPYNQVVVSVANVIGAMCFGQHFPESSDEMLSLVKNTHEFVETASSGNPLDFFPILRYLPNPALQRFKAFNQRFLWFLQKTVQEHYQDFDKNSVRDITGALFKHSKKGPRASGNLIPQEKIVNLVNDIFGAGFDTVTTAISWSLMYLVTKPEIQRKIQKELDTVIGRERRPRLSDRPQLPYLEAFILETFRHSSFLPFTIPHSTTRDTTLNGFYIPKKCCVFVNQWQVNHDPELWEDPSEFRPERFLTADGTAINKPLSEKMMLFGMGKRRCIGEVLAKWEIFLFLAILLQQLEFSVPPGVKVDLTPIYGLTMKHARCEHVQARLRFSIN
As to the kind of experiment: Inhibition of CYP1A2 in human liver microsomes using phenacetin as substrate preincubated for 5 mins followed by NADPH addition and measured for 10 to 30 mins by LC-MS/MS analysis. It is filed as ADME. On the technique in general: Liver microsomes are a subcellular fraction often used to study metabolism.

The target in data set [6] is Cytochrome P450 3A4 (Homo sapiens, UniProt P08684). As to the kind of experiment: Inhibition of CYP3A4 in human liver microsomes using midazolam as substrate preincubated for 5 mins followed by NADPH addition and measured for 10 to 30 mins by LC-MS/MS analysis. It is filed as ADME.
Sequence of Cytochrome P450 3A4 (P08684 whole entry): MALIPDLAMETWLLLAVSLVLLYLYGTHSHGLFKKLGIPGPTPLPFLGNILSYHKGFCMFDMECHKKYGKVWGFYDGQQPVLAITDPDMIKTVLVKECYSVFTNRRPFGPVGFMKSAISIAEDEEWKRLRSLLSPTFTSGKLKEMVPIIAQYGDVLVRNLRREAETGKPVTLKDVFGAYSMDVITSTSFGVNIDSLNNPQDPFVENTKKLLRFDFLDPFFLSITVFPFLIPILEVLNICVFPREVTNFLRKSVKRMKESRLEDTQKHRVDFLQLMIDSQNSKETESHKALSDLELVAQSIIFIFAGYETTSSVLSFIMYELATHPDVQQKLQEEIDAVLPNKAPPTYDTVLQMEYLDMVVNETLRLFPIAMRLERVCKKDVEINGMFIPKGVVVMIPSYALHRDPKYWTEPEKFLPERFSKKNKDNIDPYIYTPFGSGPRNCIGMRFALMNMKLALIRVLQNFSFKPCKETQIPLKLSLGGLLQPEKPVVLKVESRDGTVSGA
Data set [7] relates to COLO 320DM. As to the kind of experiment: Antitumor activity against human COLO320DM cells xenografted in Prkdc-NOD-SCID CB17 mouse assessed as tumor growth inhibition at 10 mg/kg, ip administered twice daily for 5 days followed by 2 days interval for 2 cycles relative to control. It is filed as functional. The settings on record: read-out: TGI.
Data set [8] in a line: Toxicity in human COLO320DM cells xenografted Prkdc-NOD-SCID CB17 mouse assessed as change in body weight at 10 to 20 mg/kg, ip administered twice daily for 5 days followed by 2 days interval for 2 cycles measured during compound dosing. Format: organism-based. The conditions noted are these: in vivo.
For data set [9], the system named is COLO 320DM. As to the kind of experiment: Antitumor activity against human COLO320DM cells xenografted in Prkdc-NOD-SCID CB17 mouse assessed as tumor growth inhibition at 10 mg/kg, po administered twice daily for 5 days followed by 2 days interval for 2 cycles relative to control. Format: functional. The settings on record: read-out: TGI.
In data set [10] the test system is COLO 320DM. As to the kind of experiment: Antitumor activity against human COLO320DM cells xenografted in Prkdc-NOD-SCID CB17 mouse assessed as tumor growth inhibition at 20 mg/kg, po administered twice daily for 5 days followed by 2 days interval for 2 cycles relative to control. The conditions noted are these: read-out: TGI. It is filed as functional.
For data set [11], the system named is Mus musculus. As to the kind of experiment: In vivo inhibition of TNSK/TNSK2-medited WNT/beta-catenin signaling in human COLO320DM cells xenografted Prkdc-NOD-SCID CB17 mouse assessed as upregulation of AXIN2 expression in tumor cytosolic extract at 10 to 20 mg/kg, po administered twice daily for 5 days followed by 2 days interval for 2 cycles measured 4 hrs post-last dose by Western blot analysis. Format: functional, organism-based.

A short description of data set [12]: Plasma concentration in human COLO320DM cells xenografted Prkdc-NOD-SCID CB17 mouse at 10 mg/kg, po administered twice daily for 5 days followed by 2 days interval for 2 cycles measured 4 hrs post-last dose. It is filed as ADME, organism-based.
Data set [13] can be described thus: Toxicity in human COLO320DM cells xenografted Prkdc-NOD-SCID CB17 mouse assessed as behavioral changes at 50 mg/kg, ip administered twice daily for 5 days followed by 2 days interval for 2 cycles. The settings on record: in vivo.
Data set [14] in a line: Toxicity in human COLO320DM cells xenografted Prkdc-NOD-SCID CB17 mouse assessed as reduction in appetite at 50 mg/kg, ip administered twice daily for 5 days followed by 2 days interval for 2 cycles. The settings on record: in vivo.
Data set [15] can be described thus: Toxicity in human COLO320DM cells xenografted Prkdc-NOD-SCID CB17 mouse assessed as epithelial degeneration at 50 mg/kg, ip administered twice daily for 5 days followed by 2 days interval for 2 cycles. The conditions noted are these: in vivo.

Usually pIC50 stands for the IC50 on a negative log10 scale, so that one unit is a factor of ten. Broadly, the GI50 is the concentration at which growth is held to half of that of the control. A higher GI50 goes with less potent growth inhibition. The term bioavailability denotes the share of a dose that reaches the circulation, judged against a reference dose that is usually intravenous. Low readings indicate poor availability, high ones good availability. For `C[C@@H]1CN(c2cc(F)c3c(c2)N(C)C(=O)C32CCN(c3nc4c(c(=O)[nH]3)CCCN4C)CC2)C[C@H](C)O1`, the negative logarithm of the IC50 (pIC50) is 5.09 in data set [1], less than 5.00 in [5] and less than 5.00 in data set [6]. The compound further showed a 50% growth inhibitory concentration (GI50) in [2] of more than 10 µM. In addition, the C0/dose in data set [3] is 15.26 µM. In data set [4], the bioavailability is 100%. The inhibition in vivo at 10 mg/kg stood at 68.8% in data set [7] and 52.3% in data set [9]. Also, the Activity entry in data set [8] is “Non-Toxic”; in [13], “Toxic”; in [14] it was “Toxic”; in [15], “Toxic”. In data set [10], the inhibition in vivo at 20 mg/kg worked out at 52%. For the same compound, in [11], the inhibition result was “Active”. This compound registered a concentration at 4 h in [12] of 10.1 µM.

The values are drawn from ChEMBL document CHEMBL4342498, “Design and Discovery of an Orally Efficacious Spiroindolinone-Based Tankyrase Inhibitor for the Treatment of Colon Cancer” (J Med Chem, 2020).
